This assay addresses T1, human TRPV4 (Homo sapiens, UniProt Q9HBA0).
T1 construct: host or cells: tetracycline-inducible Flp-In T-REx 293 cells
As to the kind of experiment: Hypotonicity-induced Ca2+ influx (Fluo-4, FDSS). The class given is cell-based. A digest of the protocol:
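Flp-In T-REx 293 cells with tetracycline-induced human TRPV4, loaded with Fluo-4 for 60 min at 25 °C. Compound added 5 min before hypotonic mannitol/CaCl2 solution. Ca2+ signal recorded for 4.5 min on FDSS.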

Where [1] appears, read: Flp-In T-REx 293 cells expressing human TRPV4, examples listed under heading 'Human IC50<50 nM'.
The mark [2] stands for this setting: Flp-In T-REx 293 cells stably expressing human TRPV4, compounds listed by potency bin (<10 nM Tables 96-1/96-2, <3 nM Table 97).

T1 sequence (Q9HBA0 whole entry): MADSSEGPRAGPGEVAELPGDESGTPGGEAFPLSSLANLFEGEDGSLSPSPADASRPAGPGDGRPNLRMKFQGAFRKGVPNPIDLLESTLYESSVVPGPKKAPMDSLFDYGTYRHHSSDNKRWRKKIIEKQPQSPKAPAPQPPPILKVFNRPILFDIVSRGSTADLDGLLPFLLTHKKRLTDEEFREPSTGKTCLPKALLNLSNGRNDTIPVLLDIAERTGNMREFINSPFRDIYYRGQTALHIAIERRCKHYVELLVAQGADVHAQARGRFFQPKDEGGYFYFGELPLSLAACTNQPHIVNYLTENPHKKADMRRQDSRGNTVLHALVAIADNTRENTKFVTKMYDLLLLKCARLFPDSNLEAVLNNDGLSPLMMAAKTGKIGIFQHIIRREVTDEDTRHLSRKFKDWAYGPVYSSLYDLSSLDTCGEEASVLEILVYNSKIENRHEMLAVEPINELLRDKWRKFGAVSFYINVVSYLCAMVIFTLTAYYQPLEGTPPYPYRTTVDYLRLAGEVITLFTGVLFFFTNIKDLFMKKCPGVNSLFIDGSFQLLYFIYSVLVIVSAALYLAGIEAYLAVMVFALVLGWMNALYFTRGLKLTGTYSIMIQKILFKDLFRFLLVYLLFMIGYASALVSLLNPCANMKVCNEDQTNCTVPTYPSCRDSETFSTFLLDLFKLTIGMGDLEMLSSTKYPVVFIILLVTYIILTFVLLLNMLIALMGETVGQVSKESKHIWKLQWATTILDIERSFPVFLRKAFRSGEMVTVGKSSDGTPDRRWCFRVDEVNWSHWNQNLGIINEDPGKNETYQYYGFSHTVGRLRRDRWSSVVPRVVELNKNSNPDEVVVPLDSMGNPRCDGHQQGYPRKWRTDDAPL

In the case of `CC(C)c1cc(C2(c3nc4c(c(=O)[nH]3)CN(C(=O)[C@H](O)c3cccc(C(F)(F)F)c3)CCC4)CC2)ccn1` [32-1], the IC50 under setting [1] is < 50 nM and the IC50 under setting [2] was < 10 nM.

Regarding `O=C([C@H](O)c1cccc(Cl)c1)N1CCc2nc(C3(c4cccc(-c5cccnc5)c4)CC3)[nH]c(=O)c2C1` [34-1], the IC50 under setting [1] was < 50 nM.

Consider `O=C([C@H](O)c1cccc(Cl)c1)N1CCc2nc(C3(c4cccc(-c5cnsc5)c4)CC3)[nH]c(=O)c2C1` [34-2], for which the IC50 was < 50 nM under setting [1] and < 10 nM under setting [2].

For the compound `O=C([C@H](O)c1cccc(C(F)(F)F)c1)N1CCc2nc(C3(c4cc(-c5ccccc5)cs4)CC3)[nH]c(=O)c2C1` [36-1], the IC50 under setting [1] was < 50 nM and the IC50 under setting [2] was < 10 nM.

Take `O=C([C@H](O)c1cccc(C(F)(F)F)c1)N1CCc2nc(C3(c4cc(-c5cccnc5)cs4)CC3)[nH]c(=O)c2C1` [36-2]: under setting [1], the IC50 was < 50 nM.

Consider `O=C([C@H](O)c1cccc(C(F)(F)F)c1)N1CCc2nc(C3(c4cccc(-c5ccccc5)c4)CC3)[nH]c(=O)c2C1` [37-1], for which the half-maximal inhibitory concentration (IC50) under setting [1] is < 50 nM and the IC50 under setting [2] is < 3 nM.

As for `O=C([C@H](O)c1cccc(C(F)(F)F)c1)N1CCc2nc(C3(c4cccc(-c5cccnc5)c4)CC3)[nH]c(=O)c2C1` [37-2], the IC50 reads like this: under setting [1], < 50 nM; under setting [2], < 10 nM.

In the case of `O=C([C@H](O)c1cccc(C(F)(F)F)c1)N1CCc2nc(C3(c4cccc(-c5cnsc5)c4)CC3)[nH]c(=O)c2C1` [37-3], the IC50 runs as follows: under setting [1], < 50 nM; under setting [2], < 3 nM.

In the case of `O=C([C@H](O)c1cccc(C(F)(F)F)c1)N1CCc2nc(C3(c4cncc(-c5ccccc5)c4)CC3)[nH]c(=O)c2C1` [38-1], the IC50 is < 50 nM under setting [1] and < 3 nM under setting [2].

For the compound `O=C([C@H](O)c1cccc(Cl)c1)N1CCCc2nc(C3(c4cc(-c5ccccc5)cs4)CC3)[nH]c(=O)c2C1` [39-1], the IC50 reads like this: under setting [1], < 50 nM; under setting [2], < 3 nM.

For the compound `O=C([C@H](O)c1cccc(Cl)c1)N1CCCc2nc(C3(c4cc(-c5cnsc5)cs4)CC3)[nH]c(=O)c2C1` [39-2], the IC50 was < 50 nM under setting [1] and < 10 nM under setting [2].

Consider `O=C([C@H](O)c1cccc(Cl)c1)N1CCCc2nc(C3(c4cc(-c5cccnc5)cs4)CC3)[nH]c(=O)c2C1` [39-3], for which the IC50 under setting [1] is < 50 nM.

Turning to `O=C([C@H](O)c1cccc(Cl)c1)N1CCCc2nc(C3(c4cccc(-c5ccccc5)c4)CC3)[nH]c(=O)c2C1` [40-1], the IC50 runs as follows: under setting [1], < 50 nM; under setting [2], < 3 nM.

On to `O=C([C@H](O)c1cccc(Cl)c1)N1CCCc2nc(C3(c4cccc(-c5cnsc5)c4)CC3)[nH]c(=O)c2C1` [40-2], for which the IC50 is, setting by setting: under setting [1], < 50 nM; under setting [2], < 3 nM.

For the compound `O=C([C@H](O)c1cccc(Cl)c1)N1CCCc2nc(C3(c4cccc(-c5cccnc5)c4)CC3)[nH]c(=O)c2C1` [40-3], the IC50 is, setting by setting: under setting [1], < 50 nM; under setting [2], < 10 nM.

Consider `C=C(C)c1cccc(C2(c3nc4c(c(=O)[nH]3)CN(C(=O)[C@H](O)c3cccc(Cl)c3)CCC4)CC2)c1` [40-4, (R)-6-(2-(3-chlorophenyl)-2-hydroxyacetyl)-2-(1-(3-(prop-1-en-2-yl)phenyl)cyclopropyl)-3,5,6,7,8,9-hexahydro-4H-pyrimido[5,4-c]azepin-4-one], for which the IC50 runs as follows: under setting [1], < 50 nM; under setting [2], < 3 nM.

For the compound `CC(C)(C)c1ccc(-c2cccc(C3(c4nc5c(c(=O)[nH]4)CN(C(=O)[C@H](O)c4cccc(Cl)c4)CCC5)CC3)c2)cc1` [40-5], the IC50 is, setting by setting: under setting [1], < 50 nM; under setting [2], < 10 nM.

Turning to `O=C([C@H](O)c1cccc(Cl)c1)N1CCCc2nc(C3(c4cccc(-c5cccc(Cl)c5)c4)CC3)[nH]c(=O)c2C1` [40-6], the IC50 reads like this: under setting [1], < 50 nM; under setting [2], < 10 nM.

As to `O=C([C@H](O)c1cccc(Cl)c1)N1CCCc2nc(C3(c4cccc(-c5ccc(Cl)cc5)c4)CC3)[nH]c(=O)c2C1` [40-7], the IC50 was < 50 nM under setting [1] and < 10 nM under setting [2].

Consider `O=C([C@H](O)c1cccc(Cl)c1)N1CCCc2nc(C3(c4cccc(-c5ccc(C(F)(F)F)cc5)c4)CC3)[nH]c(=O)c2C1` [40-8], for which the IC50 is < 50 nM under setting [1] and < 10 nM under setting [2].

In the case of `O=C([C@H](O)c1cccc(Cl)c1)N1CCCc2nc(C3(c4cccc(-c5ccc(F)cc5)c4)CC3)[nH]c(=O)c2C1` [40-9], the IC50 is < 50 nM under setting [1] and < 3 nM under setting [2].

Regarding `Cn1ncc2c(-c3cccc(C4(c5nc6c(c(=O)[nH]5)CN(C(=O)[C@H](O)c5cccc(Cl)c5)CCC6)CC4)c3)cccc21` [40-10], the IC50 is, setting by setting: under setting [1], < 50 nM; under setting [2], < 3 nM.

`O=C([C@H](O)c1cccc(Cl)c1)N1CCCc2nc(C3(c4cccc(-c5csc6ccccc56)c4)CC3)[nH]c(=O)c2C1` [40-11]: the IC50 runs as follows: under setting [1], < 50 nM; under setting [2], < 3 nM.

As for `Cn1ncc2cc(-c3cccc(C4(c5nc6c(c(=O)[nH]5)CN(C(=O)[C@H](O)c5cccc(Cl)c5)CCC6)CC4)c3)ccc21` [40-12], the IC50 under setting [1] was < 50 nM and the IC50 under setting [2] was < 3 nM.

For the compound `O=C([C@H](O)c1cccc(Cl)c1)N1CCCc2nc(C3(c4cccc(-c5cnn(C6CC6)c5)c4)CC3)[nH]c(=O)c2C1` [40-13], the IC50 under setting [1] was < 50 nM and the IC50 under setting [2] is < 10 nM.

Consider `COc1cc(-c2cccc(C3(c4nc5c(c(=O)[nH]4)CN(C(=O)[C@H](O)c4cccc(Cl)c4)CCC5)CC3)c2)ccn1` [40-14], for which the IC50 by setting is: under setting [1], < 50 nM; under setting [2], < 3 nM.

Consider `N#CC1(c2ccc(-c3cccc(C4(c5nc6c(c(=O)[nH]5)CN(C(=O)[C@H](O)c5cccc(Cl)c5)CCC6)CC4)c3)cc2)CC1` [40-15], for which the half-maximal inhibitory concentration (IC50) under setting [1] was < 50 nM and the IC50 under setting [2] is < 3 nM.

Take `O=C([C@H](O)c1cccc(Cl)c1)N1CCCc2nc(C3(c4cccc(-c5cc6ccccc6o5)c4)CC3)[nH]c(=O)c2C1` [40-17]: the IC50 is < 50 nM under setting [1] and < 3 nM under setting [2].

On to `O=C([C@H](O)c1cccc(Cl)c1)N1CCCc2nc(C3(c4cccc(-c5cc6ccccc6s5)c4)CC3)[nH]c(=O)c2C1` [40-18], for which the IC50 was < 50 nM under setting [1] and < 10 nM under setting [2].

Take `O=C([C@H](O)c1cccc(Cl)c1)N1CCCc2nc(C3(c4cccc(-c5coc6ccccc56)c4)CC3)[nH]c(=O)c2C1` [40-19]: the IC50 was < 50 nM under setting [1] and < 3 nM under setting [2].

Turning to `O=C([C@H](O)c1cccc(Cl)c1)N1CCCc2nc(C3(c4cccc(C5=CCCCC5)c4)CC3)[nH]c(=O)c2C1` [40-20], the IC50 is < 50 nM under setting [1] and < 3 nM under setting [2].

Take `N#Cc1cccc(-c2cccc(C3(c4nc5c(c(=O)[nH]4)CN(C(=O)[C@H](O)c4cccc(Cl)c4)CCC5)CC3)c2)c1` [40-21]: the IC50 reads like this: under setting [1], < 50 nM; under setting [2], < 3 nM.

`COCCOc1cccc(-c2cccc(C3(c4nc5c(c(=O)[nH]4)CN(C(=O)[C@H](O)c4cccc(Cl)c4)CCC5)CC3)c2)c1` [40-22]: the IC50 reads like this: under setting [1], < 50 nM; under setting [2], < 3 nM.

In the case of `O=C([C@H](O)c1cccc(C(F)(F)F)c1)N1CCCc2nc(C3(c4cc(-c5ccccc5)cs4)CC3)[nH]c(=O)c2C1` [41-1], the IC50 is < 50 nM under setting [1] and < 3 nM under setting [2].

Turning to `O=C([C@H](O)c1cccc(C(F)(F)F)c1)N1CCCc2nc(C3(c4cc(-c5cccnc5)cs4)CC3)[nH]c(=O)c2C1` [41-2], the IC50 under setting [1] is < 50 nM.
